Results from patent US20120270237A9, “METHODS FOR THE IDENTIFICATION OF KINASE INTERACTING MOLECULES AND FOR THE PURIFICATION OF KINASE PROTEINS” (Cellzone AG, priority 2009, published 2012).

Assays:
Test in all cases: Kinobeads competition binding with immobilized CZC25342, mixed HeLa placenta lysates (Example 5, Table 7)
[1] = target: T1, kinases from mixed HeLa placenta lysates (Homo sapiens, UniProt P07332); conditions: kinase FES; 10 μM free compound; HeLa Placenta lysate mix
T1 construct: capturing and identification of kinases from mixed HeLa placenta lysates; endogenous in cells; host or cells: mixed lysate of HeLa cells and placenta tissue
Method in brief: (§1)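 Mixed HeLa/placenta lysate was preincubated with 10 μM free CZC25342 or DMSO, followed by capture on beads bearing immobilized compound. Bound proteins were eluted, separated by SDS-PAGE, trypsin-digested, iTRAQ-labelled and quantified by LC-MS/MS. Percent competition was taken against the DMSO control.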

[2] = target: T2, kinases from mixed HeLa placenta lysates (Homo sapiens, UniProt Q96C45); conditions: kinase ULK4; 10 μM free compound; HeLa Placenta lysate mix
T2 construct: capturing and identification of kinases from mixed HeLa placenta lysates; endogenous in cells; host or cells: mixed lysate of HeLa cells and placenta tissue
Method in brief: as §1

[3] = target: T3, kinases from mixed HeLa placenta lysates (Homo sapiens, UniProt P51956); conditions: kinase NEK3; 10 μM free compound; HeLa Placenta lysate mix
T3 construct: capturing and identification of kinases from mixed HeLa placenta lysates; endogenous in cells; host or cells: mixed lysate of HeLa cells and placenta tissue
Method in brief: as §1

[4] = target: T4, kinases from mixed HeLa placenta lysates (Homo sapiens, UniProt P17252); conditions: kinase PKCa; 10 μM free compound; HeLa Placenta lysate mix
T4 construct: capturing and identification of kinases from mixed HeLa placenta lysates; endogenous in cells; host or cells: mixed lysate of HeLa cells and placenta tissue
Method in brief: as §1

[5] = target: T5, kinases from mixed HeLa placenta lysates (Homo sapiens, UniProt Q00535); conditions: kinase CDK5; 10 μM free compound; HeLa Placenta lysate mix
T5 construct: capturing and identification of kinases from mixed HeLa placenta lysates; endogenous in cells; host or cells: mixed lysate of HeLa cells and placenta tissue
Method in brief: as §1

[6] = target: T6, kinases from mixed HeLa placenta lysates (Homo sapiens, UniProt O96013); conditions: kinase PAK4; 10 μM free compound; HeLa Placenta lysate mix
T6 construct: capturing and identification of kinases from mixed HeLa placenta lysates; endogenous in cells; host or cells: mixed lysate of HeLa cells and placenta tissue
Method in brief: as §1

[7] = target: T7, kinases from mixed HeLa placenta lysates (Homo sapiens, UniProt O14976); conditions: kinase GAK; 10 μM free compound; HeLa Placenta lysate mix
T7 construct: capturing and identification of kinases from mixed HeLa placenta lysates; endogenous in cells; host or cells: mixed lysate of HeLa cells and placenta tissue
Method in brief: as §1

[8] = target: T8, kinases from mixed HeLa placenta lysates (Homo sapiens, UniProt Q15349); conditions: kinase RSK3; 10 μM free compound; HeLa Placenta lysate mix
T8 construct: capturing and identification of kinases from mixed HeLa placenta lysates; endogenous in cells; host or cells: mixed lysate of HeLa cells and placenta tissue
Method in brief: as §1

[9] = target: T9, kinases from mixed HeLa placenta lysates (Homo sapiens, UniProt Q13555); conditions: kinase CaMK2g; 10 μM free compound; HeLa Placenta lysate mix
T9 construct: capturing and identification of kinases from mixed HeLa placenta lysates; endogenous in cells; host or cells: mixed lysate of HeLa cells and placenta tissue
Method in brief: as §1

[10] = target: T10, kinases from mixed HeLa placenta lysates (Homo sapiens, UniProt P53350); conditions: kinase PLK1; 10 μM free compound; HeLa Placenta lysate mix
T10 construct: capturing and identification of kinases from mixed HeLa placenta lysates; endogenous in cells; host or cells: mixed lysate of HeLa cells and placenta tissue
Method in brief: as §1

[11] = target: T11, kinases from mixed HeLa placenta lysates (Homo sapiens, UniProt Q5S007); conditions: kinase LRRK2; 10 μM free compound; HeLa Placenta lysate mix
T11 construct: capturing and identification of kinases from mixed HeLa placenta lysates; endogenous in cells; host or cells: mixed lysate of HeLa cells and placenta tissue
Method in brief: as §1

[12] = target: T12, kinases from mixed HeLa placenta lysates (Homo sapiens, UniProt Q13470); conditions: kinase TNK1; 10 μM free compound; HeLa Placenta lysate mix
T12 construct: capturing and identification of kinases from mixed HeLa placenta lysates; endogenous in cells; host or cells: mixed lysate of HeLa cells and placenta tissue
Method in brief: as §1

[13] = target: T13, kinases from mixed HeLa placenta lysates (Homo sapiens, UniProt P42680); conditions: kinase TEC; 10 μM free compound; HeLa Placenta lysate mix
T13 construct: capturing and identification of kinases from mixed HeLa placenta lysates; endogenous in cells; host or cells: mixed lysate of HeLa cells and placenta tissue
Method in brief: as §1

[14] = target: T14, kinases from mixed HeLa placenta lysates (Homo sapiens, UniProt Q16584); conditions: kinase MLK3; 10 μM free compound; HeLa Placenta lysate mix
T14 construct: capturing and identification of kinases from mixed HeLa placenta lysates; endogenous in cells; host or cells: mixed lysate of HeLa cells and placenta tissue
Method in brief: as §1

[15] = target: T15, kinases from mixed HeLa placenta lysates (Homo sapiens, UniProt P06241); conditions: kinase FYN; 10 μM free compound; HeLa Placenta lysate mix
T15 construct: capturing and identification of kinases from mixed HeLa placenta lysates; endogenous in cells; host or cells: mixed lysate of HeLa cells and placenta tissue
Method in brief: as §1

[16] = target: T16, kinases from mixed HeLa placenta lysates (Homo sapiens, UniProt Q13233); conditions: kinase MAP3K1; 10 μM free compound; HeLa Placenta lysate mix
T16 construct: capturing and identification of kinases from mixed HeLa placenta lysates; endogenous in cells; host or cells: mixed lysate of HeLa cells and placenta tissue
Method in brief: as §1

[17] = target: T17, kinases from mixed HeLa placenta lysates (Homo sapiens, UniProt P12931); conditions: kinase SRC; 10 μM free compound; HeLa Placenta lysate mix
T17 construct: capturing and identification of kinases from mixed HeLa placenta lysates; endogenous in cells; host or cells: mixed lysate of HeLa cells and placenta tissue
Method in brief: as §1

[18] = target: T18, kinases from mixed HeLa placenta lysates (Homo sapiens, UniProt Q9Y6R4); conditions: kinase MAP3K4; 10 μM free compound; HeLa Placenta lysate mix
T18 construct: capturing and identification of kinases from mixed HeLa placenta lysates; endogenous in cells; host or cells: mixed lysate of HeLa cells and placenta tissue
Method in brief: as §1

[19] = target: T19, kinases from mixed HeLa placenta lysates (Homo sapiens, UniProt Q14164); conditions: kinase IKKe; 10 μM free compound; HeLa Placenta lysate mix
T19 construct: capturing and identification of kinases from mixed HeLa placenta lysates; endogenous in cells; host or cells: mixed lysate of HeLa cells and placenta tissue
Method in brief: as §1

[20] = target: T20, kinases from mixed HeLa placenta lysates (Homo sapiens, UniProt P50750); conditions: kinase CDK9; 10 μM free compound; HeLa Placenta lysate mix
T20 construct: capturing and identification of kinases from mixed HeLa placenta lysates; endogenous in cells; host or cells: mixed lysate of HeLa cells and placenta tissue
Method in brief: as §1

[21] = target: T21, kinases from mixed HeLa placenta lysates (Homo sapiens, UniProt Q2M2I8); conditions: kinase AAK1; 10 μM free compound; HeLa Placenta lysate mix
T21 construct: capturing and identification of kinases from mixed HeLa placenta lysates; endogenous in cells; host or cells: mixed lysate of HeLa cells and placenta tissue
Method in brief: as §1

[22] = target: T22, kinases from mixed HeLa placenta lysates (Homo sapiens, UniProt P35916); conditions: kinase FLT4; 10 μM free compound; HeLa Placenta lysate mix
T22 construct: capturing and identification of kinases from mixed HeLa placenta lysates; endogenous in cells; host or cells: mixed lysate of HeLa cells and placenta tissue
Method in brief: as §1

[23] = target: T23, kinases from mixed HeLa placenta lysates (Homo sapiens, UniProt Q04912); conditions: kinase RON; 10 μM free compound; HeLa Placenta lysate mix
T23 construct: capturing and identification of kinases from mixed HeLa placenta lysates; endogenous in cells; host or cells: mixed lysate of HeLa cells and placenta tissue
Method in brief: as §1

[24] = target: T24, kinases from mixed HeLa placenta lysates (Homo sapiens, UniProt O75676); conditions: kinase MSK2; 10 μM free compound; HeLa Placenta lysate mix
T24 construct: capturing and identification of kinases from mixed HeLa placenta lysates; endogenous in cells; host or cells: mixed lysate of HeLa cells and placenta tissue
Method in brief: as §1

T21 sequence (Q2M2I8 whole entry): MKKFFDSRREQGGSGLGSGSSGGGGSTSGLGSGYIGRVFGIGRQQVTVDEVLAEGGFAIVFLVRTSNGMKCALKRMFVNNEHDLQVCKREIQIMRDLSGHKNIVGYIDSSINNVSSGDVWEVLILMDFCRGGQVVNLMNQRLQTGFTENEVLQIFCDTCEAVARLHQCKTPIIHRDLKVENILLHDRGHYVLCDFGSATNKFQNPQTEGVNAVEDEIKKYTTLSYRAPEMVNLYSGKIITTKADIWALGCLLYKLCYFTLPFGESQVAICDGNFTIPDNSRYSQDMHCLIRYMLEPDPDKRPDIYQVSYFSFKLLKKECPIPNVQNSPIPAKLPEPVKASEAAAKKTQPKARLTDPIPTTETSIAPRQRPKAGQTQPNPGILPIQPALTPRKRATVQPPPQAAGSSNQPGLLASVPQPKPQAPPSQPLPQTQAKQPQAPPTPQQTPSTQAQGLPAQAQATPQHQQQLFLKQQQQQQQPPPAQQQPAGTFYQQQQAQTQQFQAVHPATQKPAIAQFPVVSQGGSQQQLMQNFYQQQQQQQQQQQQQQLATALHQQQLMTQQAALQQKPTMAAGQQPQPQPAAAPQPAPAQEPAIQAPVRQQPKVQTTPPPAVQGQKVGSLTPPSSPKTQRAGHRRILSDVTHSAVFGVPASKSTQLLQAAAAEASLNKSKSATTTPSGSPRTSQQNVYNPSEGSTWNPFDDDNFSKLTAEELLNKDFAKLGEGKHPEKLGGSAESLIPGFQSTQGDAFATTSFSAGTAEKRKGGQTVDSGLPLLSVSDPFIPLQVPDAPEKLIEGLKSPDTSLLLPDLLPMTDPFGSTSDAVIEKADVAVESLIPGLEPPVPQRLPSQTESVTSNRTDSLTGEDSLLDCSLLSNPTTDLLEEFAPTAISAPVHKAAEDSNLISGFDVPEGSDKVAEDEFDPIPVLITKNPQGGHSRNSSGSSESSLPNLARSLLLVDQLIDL
T1 sequence (P07332 whole entry): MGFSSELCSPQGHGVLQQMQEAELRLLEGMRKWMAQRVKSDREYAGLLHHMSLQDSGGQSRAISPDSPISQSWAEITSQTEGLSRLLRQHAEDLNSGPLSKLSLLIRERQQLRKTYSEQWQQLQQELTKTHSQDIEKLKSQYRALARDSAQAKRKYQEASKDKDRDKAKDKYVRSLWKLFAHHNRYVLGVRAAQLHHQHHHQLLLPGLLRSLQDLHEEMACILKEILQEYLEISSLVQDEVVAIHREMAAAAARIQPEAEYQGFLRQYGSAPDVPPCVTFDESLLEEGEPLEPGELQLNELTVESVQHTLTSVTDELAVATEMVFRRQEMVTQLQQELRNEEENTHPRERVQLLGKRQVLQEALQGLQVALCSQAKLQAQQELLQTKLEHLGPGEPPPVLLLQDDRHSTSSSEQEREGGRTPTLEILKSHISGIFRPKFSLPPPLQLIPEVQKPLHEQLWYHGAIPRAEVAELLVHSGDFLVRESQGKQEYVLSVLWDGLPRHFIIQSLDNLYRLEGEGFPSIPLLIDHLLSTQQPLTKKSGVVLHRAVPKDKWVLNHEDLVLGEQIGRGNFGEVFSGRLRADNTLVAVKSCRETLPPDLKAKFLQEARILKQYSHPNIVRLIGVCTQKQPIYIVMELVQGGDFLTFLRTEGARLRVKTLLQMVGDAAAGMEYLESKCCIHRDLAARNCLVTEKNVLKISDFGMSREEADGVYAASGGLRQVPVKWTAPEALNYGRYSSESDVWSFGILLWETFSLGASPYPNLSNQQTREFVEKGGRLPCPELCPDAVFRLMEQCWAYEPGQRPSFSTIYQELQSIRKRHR
T8 sequence (Q15349 whole entry): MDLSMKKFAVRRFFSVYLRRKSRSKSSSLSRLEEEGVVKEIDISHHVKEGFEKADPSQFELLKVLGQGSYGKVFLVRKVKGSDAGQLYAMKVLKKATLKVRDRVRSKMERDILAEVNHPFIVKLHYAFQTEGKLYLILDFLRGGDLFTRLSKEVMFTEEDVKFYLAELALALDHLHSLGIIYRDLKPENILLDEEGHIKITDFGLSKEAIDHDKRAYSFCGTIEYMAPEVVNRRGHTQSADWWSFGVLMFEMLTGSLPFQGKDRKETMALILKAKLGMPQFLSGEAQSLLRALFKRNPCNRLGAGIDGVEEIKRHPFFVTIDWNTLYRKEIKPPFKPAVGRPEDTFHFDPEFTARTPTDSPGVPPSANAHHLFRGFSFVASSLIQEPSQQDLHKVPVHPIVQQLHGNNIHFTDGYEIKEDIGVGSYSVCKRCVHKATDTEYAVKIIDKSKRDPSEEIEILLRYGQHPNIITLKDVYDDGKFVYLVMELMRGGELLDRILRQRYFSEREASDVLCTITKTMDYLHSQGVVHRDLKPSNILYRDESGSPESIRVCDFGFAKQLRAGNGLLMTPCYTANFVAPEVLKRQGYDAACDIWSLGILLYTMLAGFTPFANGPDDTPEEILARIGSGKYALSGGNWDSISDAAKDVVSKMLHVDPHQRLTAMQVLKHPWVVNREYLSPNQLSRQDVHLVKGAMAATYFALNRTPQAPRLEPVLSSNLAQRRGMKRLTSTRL
T17 sequence (P12931 whole entry): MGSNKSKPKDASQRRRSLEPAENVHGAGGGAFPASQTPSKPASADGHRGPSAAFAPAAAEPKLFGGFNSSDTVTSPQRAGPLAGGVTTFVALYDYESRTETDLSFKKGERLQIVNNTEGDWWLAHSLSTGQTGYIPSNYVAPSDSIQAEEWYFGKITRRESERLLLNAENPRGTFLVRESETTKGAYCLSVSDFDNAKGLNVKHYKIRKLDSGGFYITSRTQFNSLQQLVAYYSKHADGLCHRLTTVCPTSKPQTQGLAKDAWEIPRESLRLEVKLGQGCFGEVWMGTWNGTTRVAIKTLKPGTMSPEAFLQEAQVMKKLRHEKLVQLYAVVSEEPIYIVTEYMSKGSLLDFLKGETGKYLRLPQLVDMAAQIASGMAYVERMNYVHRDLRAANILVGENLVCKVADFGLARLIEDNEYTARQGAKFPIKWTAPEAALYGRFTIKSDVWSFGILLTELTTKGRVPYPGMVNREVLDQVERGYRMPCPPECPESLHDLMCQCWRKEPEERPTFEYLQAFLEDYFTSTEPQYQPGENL
T20 sequence (P50750 whole entry): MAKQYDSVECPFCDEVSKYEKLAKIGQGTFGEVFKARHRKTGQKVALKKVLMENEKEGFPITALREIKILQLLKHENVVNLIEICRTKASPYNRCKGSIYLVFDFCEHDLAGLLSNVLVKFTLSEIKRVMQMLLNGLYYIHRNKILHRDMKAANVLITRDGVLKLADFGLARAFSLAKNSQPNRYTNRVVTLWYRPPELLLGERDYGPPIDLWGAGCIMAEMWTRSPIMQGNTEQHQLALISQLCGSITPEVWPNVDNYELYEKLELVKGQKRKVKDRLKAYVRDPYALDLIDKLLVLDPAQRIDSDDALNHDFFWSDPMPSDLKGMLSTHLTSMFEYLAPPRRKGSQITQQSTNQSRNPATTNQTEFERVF
T7 sequence (O14976 whole entry): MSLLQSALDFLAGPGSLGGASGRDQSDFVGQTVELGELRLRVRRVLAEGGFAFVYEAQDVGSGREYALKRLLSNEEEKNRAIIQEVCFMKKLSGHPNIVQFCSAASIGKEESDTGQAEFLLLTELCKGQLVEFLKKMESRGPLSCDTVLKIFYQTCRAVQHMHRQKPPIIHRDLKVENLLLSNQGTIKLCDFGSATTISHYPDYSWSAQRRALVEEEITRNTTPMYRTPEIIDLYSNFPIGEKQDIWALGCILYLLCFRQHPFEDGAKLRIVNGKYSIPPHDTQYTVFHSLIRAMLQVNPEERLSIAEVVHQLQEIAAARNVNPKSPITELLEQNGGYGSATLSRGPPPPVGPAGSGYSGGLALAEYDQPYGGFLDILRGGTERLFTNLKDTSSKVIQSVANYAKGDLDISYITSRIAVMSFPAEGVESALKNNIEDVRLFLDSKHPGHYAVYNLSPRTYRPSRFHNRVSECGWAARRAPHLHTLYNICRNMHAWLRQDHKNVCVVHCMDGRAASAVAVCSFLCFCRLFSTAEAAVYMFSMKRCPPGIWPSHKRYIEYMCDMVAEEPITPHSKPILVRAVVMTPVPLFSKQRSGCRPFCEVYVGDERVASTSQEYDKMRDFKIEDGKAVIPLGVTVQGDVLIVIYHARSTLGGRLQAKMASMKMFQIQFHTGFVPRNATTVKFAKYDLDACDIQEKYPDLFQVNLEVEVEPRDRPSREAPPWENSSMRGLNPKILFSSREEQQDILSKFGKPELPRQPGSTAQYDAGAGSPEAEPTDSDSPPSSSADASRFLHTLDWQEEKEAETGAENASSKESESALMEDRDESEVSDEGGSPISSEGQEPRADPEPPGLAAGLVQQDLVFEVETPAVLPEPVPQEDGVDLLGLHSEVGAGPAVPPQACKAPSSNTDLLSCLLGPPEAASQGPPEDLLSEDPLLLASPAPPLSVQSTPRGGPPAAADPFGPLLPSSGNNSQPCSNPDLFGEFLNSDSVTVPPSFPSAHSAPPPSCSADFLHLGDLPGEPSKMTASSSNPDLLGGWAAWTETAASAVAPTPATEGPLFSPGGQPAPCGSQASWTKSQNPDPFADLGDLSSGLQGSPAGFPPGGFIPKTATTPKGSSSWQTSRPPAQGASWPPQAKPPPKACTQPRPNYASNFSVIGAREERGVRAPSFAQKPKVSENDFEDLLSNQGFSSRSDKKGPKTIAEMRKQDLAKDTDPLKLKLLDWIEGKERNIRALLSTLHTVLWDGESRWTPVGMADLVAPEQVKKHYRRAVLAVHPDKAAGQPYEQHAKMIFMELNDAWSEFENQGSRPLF
T5 sequence (Q00535 whole entry): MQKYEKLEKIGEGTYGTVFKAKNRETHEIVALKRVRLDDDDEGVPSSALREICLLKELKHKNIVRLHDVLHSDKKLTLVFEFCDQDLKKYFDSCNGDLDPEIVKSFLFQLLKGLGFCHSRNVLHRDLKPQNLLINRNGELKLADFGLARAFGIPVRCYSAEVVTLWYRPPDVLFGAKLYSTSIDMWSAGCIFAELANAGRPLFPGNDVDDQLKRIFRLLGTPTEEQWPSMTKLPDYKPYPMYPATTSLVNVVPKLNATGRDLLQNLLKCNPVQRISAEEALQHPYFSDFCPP

## CS(=O)(=O)Nc1ccccc1Nc1nc(Nc2cccc(OCCN)c2)ncc1F [CZC25342, N-(2-(2-(3-(2-aminoethoxy)phenylamino)-5-fluoropyrimidin-4-ylamino)phenyl)methanesulfonamide]
[1]
  Competition % FES: 96.9%
[2]
  Competition % ULK4: 84.7%
[3]
  Competition % NEK3: 94.8%
[4]
  Competition % PKCa: 96.4%
[5]
  Competition % CDK5: 92.6%
[6]
  Competition % PAK4: 94.8%
[7]
  Competition % GAK: 95.9%
[8]
  Competition % RSK3: 95.5%
[9]
  Competition % CaMK2g: 75.2%
[10]
  Competition % PLK1: 94.6%
[11]
  Competition % LRRK2: 87.8%
[12]
  Competition % TNK1: 94.1%
[13]
  Competition % TEC: 89.3%
[14]
  Competition % MLK3: 94.9%
[15]
  Competition % FYN: 93.2%
[16]
  Competition % MAP3K1: 64.6%
[17]
  Competition % SRC: 89.5%
[18]
  Competition % MAP3K4: 92.2%
[19]
  Competition % IKKe: 69%
[20]
  Competition % CDK9: 97.6%
[21]
  Competition % AAK1: 95.6%
[22]
  Competition % FLT4: 88.2%
[23]
  Competition % RON: 96%
[24]
  Competition % MSK2: 93.2%
